Experimental data: PMC10818746, “Inhibition of CYP1A1 Alleviates Colchicine-Induced Hepatotoxicity” (Toxins, 2024)

How the values were obtained:
Assay type in all cases: in vitro ADME
Details in all cases: colchicine 25 µM, NADPH 1 mM, CYP 2 pmol/mL, PBS pH 7.4; mean ± SD (n = 2)
CYP1A1 = molecular target: T1, CYP1A1 (Homo sapiens, UniProt P04798); assay: Colchicine metabolism by cDNA-expressed recombinant CYP1A1
T1 construct: purchased Research Institute for Liver Diseases Co., Ltd. (Shanghai, China)
T1 sequence (P04798 1-512): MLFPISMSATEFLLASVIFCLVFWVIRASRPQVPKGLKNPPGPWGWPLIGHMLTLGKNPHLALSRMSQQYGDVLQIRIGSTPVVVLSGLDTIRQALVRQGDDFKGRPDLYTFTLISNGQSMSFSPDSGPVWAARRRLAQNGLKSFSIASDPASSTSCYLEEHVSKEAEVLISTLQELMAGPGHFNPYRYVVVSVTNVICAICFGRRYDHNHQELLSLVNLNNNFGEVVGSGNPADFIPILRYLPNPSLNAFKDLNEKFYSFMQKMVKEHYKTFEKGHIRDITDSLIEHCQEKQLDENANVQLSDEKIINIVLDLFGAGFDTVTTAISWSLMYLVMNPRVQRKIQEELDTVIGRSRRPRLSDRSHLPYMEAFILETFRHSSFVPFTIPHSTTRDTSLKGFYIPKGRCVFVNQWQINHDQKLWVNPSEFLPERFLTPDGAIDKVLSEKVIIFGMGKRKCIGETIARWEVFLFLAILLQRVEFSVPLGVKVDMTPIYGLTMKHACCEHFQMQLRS
Procedure: (§1) Pre-cooled acetonitrile was used to terminate the reaction, and then centrifugation (4 °C, 12,000 rpm, 20 min) was performed to obtain the sample.
(§2) All samples were analyzed as shown in [17] and are briefly described in Supporting Information. […]
(§3) Supplementary materials and methods
(§4) Reference numbers refer to the main text list
(§5) UHPLC‐Q exactive plus MS Analysis
(§6) All samples were analyzed on a liquid chromatography system including a Vanquish autosampler, Vanquish detector, Vanquish pump (Thremo Fisher Scientific, Santa Clara, CA). Samples were separated on an ACQUITY UPLC HSS T3 column (2.1×100 mm, […], Waters, USA). The injection volume: 5 μL, and the flow rate was 0.3 mL/min.
(§7) Phase A was H2O containing 0.01% formic acid, and phase B was acetonitrile containing 0.01% formic acid. The elution gradient was as follows: 0‐12 mi n, 2‐98% B; 12‐14 min, 2% A; 14‐16 min, 98% A. Other parameters are as follows: column temperature 45 ℃ , flow rate of collision gas and dry gas 9 L/min. Capillary voltage 3.5 kV, temperature 350 ℃ , atomizer pressure 35 psi. Vanquish UHPLC‐Q Exactive plus MS (Thermo Fisher, USA) was collected in both positive modes, operating in full scan mode with 60‐900 m/z. […]

CYP2B6 = molecular target: T2, CYP2B6 (Homo sapiens, UniProt P20813); assay: Colchicine metabolism by cDNA-expressed recombinant CYP2B6
T2 construct: purchased Research Institute for Liver Diseases Co., Ltd. (Shanghai, China)
T2 sequence (P20813 1-491): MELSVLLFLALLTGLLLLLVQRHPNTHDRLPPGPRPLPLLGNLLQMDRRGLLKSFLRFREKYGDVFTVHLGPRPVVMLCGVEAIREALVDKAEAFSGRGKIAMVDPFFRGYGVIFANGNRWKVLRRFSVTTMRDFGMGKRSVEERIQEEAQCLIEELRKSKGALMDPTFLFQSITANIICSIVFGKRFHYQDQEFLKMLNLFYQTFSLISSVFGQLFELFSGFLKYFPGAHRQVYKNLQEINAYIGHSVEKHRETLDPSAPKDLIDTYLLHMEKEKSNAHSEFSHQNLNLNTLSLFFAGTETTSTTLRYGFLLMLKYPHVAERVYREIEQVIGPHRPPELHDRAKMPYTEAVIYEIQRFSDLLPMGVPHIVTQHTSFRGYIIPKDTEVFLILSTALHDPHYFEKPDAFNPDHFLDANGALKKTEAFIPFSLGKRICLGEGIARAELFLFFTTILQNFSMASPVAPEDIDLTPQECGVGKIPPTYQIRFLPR
Procedure: as §1, §2, §3, §4, §5, §6, §7

CYP2C19 = molecular target: T3, CYP2C19 (Homo sapiens, UniProt P33261); assay: Colchicine metabolism by cDNA-expressed recombinant CYP2C19
T3 construct: purchased Research Institute for Liver Diseases Co., Ltd. (Shanghai, China)
Procedure: as §1, §2, §3, §4, §5, §6, §7

CYP2C8 = molecular target: T4, CYP2C8 (Homo sapiens, UniProt P10632); assay: Colchicine metabolism by cDNA-expressed recombinant CYP2C8
T4 construct: purchased Research Institute for Liver Diseases Co., Ltd. (Shanghai, China)
T4 sequence (P10632 1-490): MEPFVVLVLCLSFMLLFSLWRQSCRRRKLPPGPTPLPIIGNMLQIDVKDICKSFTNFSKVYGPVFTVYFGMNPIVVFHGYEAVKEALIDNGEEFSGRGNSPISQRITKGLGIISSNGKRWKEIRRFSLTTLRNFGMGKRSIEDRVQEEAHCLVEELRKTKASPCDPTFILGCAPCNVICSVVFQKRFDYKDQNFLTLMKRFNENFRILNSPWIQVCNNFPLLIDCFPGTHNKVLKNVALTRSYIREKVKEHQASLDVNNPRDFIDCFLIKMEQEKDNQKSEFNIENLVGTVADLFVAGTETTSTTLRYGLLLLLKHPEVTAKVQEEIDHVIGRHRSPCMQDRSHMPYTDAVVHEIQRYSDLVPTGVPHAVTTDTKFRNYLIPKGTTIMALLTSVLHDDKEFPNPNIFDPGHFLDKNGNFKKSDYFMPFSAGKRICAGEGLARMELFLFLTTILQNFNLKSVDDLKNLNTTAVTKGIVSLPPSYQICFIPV
Procedure: as §1, §2, §3, §4, §5, §6, §7

CYP2C9 = molecular target: T5, CYP2C9 (Homo sapiens, UniProt P11712); assay: Colchicine metabolism by cDNA-expressed recombinant CYP2C9
T5 construct: purchased Research Institute for Liver Diseases Co., Ltd. (Shanghai, China)
Procedure: as §1, §2, §3, §4, §5, §6, §7

CYP2E1 = molecular target: T6, CYP2E1 (Homo sapiens, UniProt P05181); assay: Colchicine metabolism by cDNA-expressed recombinant CYP2E1
T6 construct: purchased Research Institute for Liver Diseases Co., Ltd. (Shanghai, China)
Procedure: as §1, §2, §3, §4, §5, §6, §7

CYP3A5 = molecular target: T7, CYP3A5 (Homo sapiens, UniProt P20815); assay: Colchicine metabolism by cDNA-expressed recombinant CYP3A5
T7 construct: purchased Research Institute for Liver Diseases Co., Ltd. (Shanghai, China)
Procedure: as §1, §2, §3, §4, §5, §6, §7

CYP4A11 = molecular target: T8, CYP4A11 (Homo sapiens, UniProt Q02928); assay: Colchicine metabolism by cDNA-expressed recombinant CYP4A11
T8 construct: purchased Research Institute for Liver Diseases Co., Ltd. (Shanghai, China)
T8 sequence (Q02928 5-519): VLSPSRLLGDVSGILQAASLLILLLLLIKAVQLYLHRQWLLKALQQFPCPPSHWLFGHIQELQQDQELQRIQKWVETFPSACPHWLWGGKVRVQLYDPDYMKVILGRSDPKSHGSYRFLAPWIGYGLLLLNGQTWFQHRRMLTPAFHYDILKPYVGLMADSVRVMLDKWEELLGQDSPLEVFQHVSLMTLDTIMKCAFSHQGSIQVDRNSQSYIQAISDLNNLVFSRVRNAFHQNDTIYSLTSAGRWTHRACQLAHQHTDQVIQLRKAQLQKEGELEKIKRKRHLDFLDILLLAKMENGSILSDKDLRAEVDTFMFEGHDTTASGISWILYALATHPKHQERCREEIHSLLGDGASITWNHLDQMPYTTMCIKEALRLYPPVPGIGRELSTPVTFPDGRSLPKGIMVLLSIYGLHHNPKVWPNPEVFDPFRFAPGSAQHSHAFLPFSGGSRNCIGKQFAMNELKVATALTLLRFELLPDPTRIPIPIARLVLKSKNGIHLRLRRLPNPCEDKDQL
Procedure: as §1, §2, §3, §4, §5, §6, §7

T3 sequence (P33261 whole entry): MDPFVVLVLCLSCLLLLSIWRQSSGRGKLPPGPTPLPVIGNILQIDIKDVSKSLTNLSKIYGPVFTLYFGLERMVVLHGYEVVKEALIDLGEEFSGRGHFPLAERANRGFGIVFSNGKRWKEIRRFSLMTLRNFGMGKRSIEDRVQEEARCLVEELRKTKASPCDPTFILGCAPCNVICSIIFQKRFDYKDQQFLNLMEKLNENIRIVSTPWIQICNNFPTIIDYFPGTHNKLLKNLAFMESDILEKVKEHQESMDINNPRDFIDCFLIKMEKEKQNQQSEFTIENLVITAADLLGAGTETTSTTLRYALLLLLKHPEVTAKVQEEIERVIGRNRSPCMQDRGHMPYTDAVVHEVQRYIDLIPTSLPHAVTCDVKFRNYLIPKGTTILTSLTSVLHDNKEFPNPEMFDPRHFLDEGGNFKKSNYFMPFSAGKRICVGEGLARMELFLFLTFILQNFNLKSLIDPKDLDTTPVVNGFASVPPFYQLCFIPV
T6 sequence (P05181 whole entry): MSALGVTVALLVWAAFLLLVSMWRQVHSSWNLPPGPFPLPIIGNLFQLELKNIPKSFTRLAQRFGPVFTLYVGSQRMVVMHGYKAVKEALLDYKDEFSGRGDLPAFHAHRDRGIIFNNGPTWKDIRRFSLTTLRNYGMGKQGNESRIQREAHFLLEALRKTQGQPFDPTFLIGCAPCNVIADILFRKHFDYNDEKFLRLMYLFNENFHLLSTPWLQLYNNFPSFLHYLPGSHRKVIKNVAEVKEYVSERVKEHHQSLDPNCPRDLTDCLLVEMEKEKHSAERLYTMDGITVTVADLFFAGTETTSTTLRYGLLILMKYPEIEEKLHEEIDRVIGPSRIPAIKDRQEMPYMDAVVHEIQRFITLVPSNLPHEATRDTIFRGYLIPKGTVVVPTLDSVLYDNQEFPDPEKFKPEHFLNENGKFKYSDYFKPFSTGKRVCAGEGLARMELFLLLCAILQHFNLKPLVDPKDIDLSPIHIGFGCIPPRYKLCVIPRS
T5 sequence (P11712 whole entry): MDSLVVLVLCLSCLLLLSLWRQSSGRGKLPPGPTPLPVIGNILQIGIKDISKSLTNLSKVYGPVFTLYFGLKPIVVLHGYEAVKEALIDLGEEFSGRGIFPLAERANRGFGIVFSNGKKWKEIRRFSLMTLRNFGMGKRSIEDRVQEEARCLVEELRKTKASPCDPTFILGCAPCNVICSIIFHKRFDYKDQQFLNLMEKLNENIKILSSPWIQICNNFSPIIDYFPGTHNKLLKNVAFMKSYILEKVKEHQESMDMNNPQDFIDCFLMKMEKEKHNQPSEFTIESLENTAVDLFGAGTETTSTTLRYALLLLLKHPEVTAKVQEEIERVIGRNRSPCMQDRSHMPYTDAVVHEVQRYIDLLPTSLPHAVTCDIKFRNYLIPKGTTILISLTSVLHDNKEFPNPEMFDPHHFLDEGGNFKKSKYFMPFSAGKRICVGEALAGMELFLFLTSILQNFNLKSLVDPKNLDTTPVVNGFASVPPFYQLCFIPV
T7 sequence (P20815 whole entry): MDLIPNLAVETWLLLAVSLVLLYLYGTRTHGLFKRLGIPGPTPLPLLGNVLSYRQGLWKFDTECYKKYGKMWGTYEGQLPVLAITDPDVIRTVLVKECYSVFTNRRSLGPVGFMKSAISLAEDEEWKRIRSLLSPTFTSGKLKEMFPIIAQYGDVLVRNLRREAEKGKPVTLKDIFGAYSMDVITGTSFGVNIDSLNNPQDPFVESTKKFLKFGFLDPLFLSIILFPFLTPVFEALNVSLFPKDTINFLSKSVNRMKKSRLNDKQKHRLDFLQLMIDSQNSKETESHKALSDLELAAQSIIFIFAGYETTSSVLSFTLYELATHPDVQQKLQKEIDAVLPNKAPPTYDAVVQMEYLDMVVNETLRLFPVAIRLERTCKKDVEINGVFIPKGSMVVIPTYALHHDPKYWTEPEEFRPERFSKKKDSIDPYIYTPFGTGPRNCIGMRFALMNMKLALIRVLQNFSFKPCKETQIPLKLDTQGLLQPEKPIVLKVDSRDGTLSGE

Row | SMILES | peak area of the metabolite after incubation with CYP1A1 as a percentage of the total peak areas from all the CYPs (CYP1A1) | peak area of the metabolite after incubation with CYP2B6 as a percentage of the total peak areas from all the CYPs (CYP2B6) | peak area of the metabolite after incubation with CYP2C19 as a percentage of the total peak areas from all the CYPs (CYP2C19) | peak area of the metabolite after incubation with CYP2C8 as a percentage of the total peak areas from all the CYPs (CYP2C8) | peak area of the metabolite after incubation with CYP2C9 as a percentage of the total peak areas from all the CYPs (CYP2C9) | peak area of the metabolite after incubation with CYP2E1 as a percentage of the total peak areas from all the CYPs (CYP2E1) | peak area of the metabolite after incubation with CYP3A5 as a percentage of the total peak areas from all the CYPs (CYP3A5) | peak area of the metabolite after incubation with CYP4A11 as a percentage of the total peak areas from all the CYPs (CYP4A11)
1 | COc1cc2c(c(OC)c1O)-c1ccc(OC)c(=O)cc1[C@@H](NC(C)=O)CC2 [M1] | 3.91 ± 3.16% | 6.90 ± 0.52% | 8.35 ± 0.65% | 6.82 ± 0.03% | 13.68 ± 5.29% | 4.77 ± 2.02% | 9.93 ± 0.49% | 6.48 ± 0.33%
2 | COc1cc2c(c(O)c1OC)-c1ccc(OC)c(=O)cc1[C@@H](NC(C)=O)CC2 [M2] | 4.51 ± 2.24% | 4.42 ± 0.21% | 6.27 ± 0.30% | 3.69 ± 0.02% | 5.57 ± 1.45% | 3.69 ± 0.51% | 12.14 ± 0.15% | 3.57 ± 0.39%
3 | COc1cc2c(c(OC)c1OC)-c1ccc(O)c(=O)cc1[C@@H](NC(C)=O)CC2 [M4] | 6.99 ± 0.30% | 7.77 ± 0.57% | 6.69 ± 1.91% | 7.21 ± 0.40% | 6.44 ± 0.02% | 6.93 ± 0.40% | 7.36 ± 0.44% | 6.78 ± 0.33%
4 | COc1c(O)cc2c(c1OC)-c1ccc(OC)c(=O)cc1[C@@H](NC(C)=O)C=C2 [M5] | 6.87 ± 0.00% | 7.86 ± 0.00% | 8.63 ± 1.05% | 7.37 ± 0.00% | 7.59 ± 0.00% | 7.32 ± 0.00% | 8.12 ± 0.00% | 8.01 ± 0.00%
5 | COc1cc2c(c(OC)c1OC)-c1ccc(OC)c(=O)cc1C=CC2 [M6] | 8.78 ± 1.10% | 9.86 ± 0.58% | 6.74 ± 0.36% | 6.90 ± 1.01% | 7.33 ± 0.35% | 8.09 ± 0.37% | 8.06 ± 0.09% | 6.01 ± 0.22%
6 | COc1c(O)cc2c(c1O)-c1ccc(OC)c(=O)cc1[C@@H](NC(C)=O)CC2 [M8] | 9.32 ± 5.12% | 10.13 ± 3.38% | 7.66 ± 2.52% | 8.61 ± 4.55% | 6.12 ± 3.22% | 6.78 ± 0.72% | 11.08 ± 1.09% | 7.65 ± 1.95%
